Values after ≈ are worked out from the molar mass of the structure shown.
How the values were obtained:
Assay in all cases: ≥ marks a high value that may be exact or a test limit, other limits are often not marked, values filed in µg/mL are converted to µM
[1] = tested on: Staphylococcus aureus JE2
Escherichia coli K-12 = tested on: Escherichia coli K-12
[2] = tested on: Streptococcus pyogenes DMST 17020
[3] = tested on: Staphylococcus epidermidis ATCC 12228
[4] = tested on: Candida tropicalis CGMCC 2.1975
[5] = tested on: Staphylococcus aureus ATCC 25923
[6] = tested on: Candida albicans CGMCC 2.2086
[7] = tested on: Staphylococcus aureus ATCC 29213
[8] = tested on: Lacticaseibacillus rhamnosus 7469
[9] = tested on: Candida parapsilosis CGMCC 2.3989
[10] = tested on: Lactiplantibacillus plantarum 8014
Enterobacter cloacae = tested on: Enterobacter cloacae
Staphylococcus aureus MR = tested on: Staphylococcus aureus MR
[11] = tested on: Escherichia coli KpC+001812446
Acinetobacter baumannii = tested on: Acinetobacter baumannii
[12] = tested on: Escherichia coli ATCC 25922
[13] = tested on: Staphylococcus aureus ATCC 12600
[14] = tested on: Pseudomonas aeruginosa PAO1
[15] = tested on: Pseudomonas aeruginosa PA14
[16] = tested on: Klebsiella pneumoniae KpC+001825971
Escherichia coli BL21 = tested on: Escherichia coli BL21
[17] = tested on: Klebsiella pneumoniae ATCC 13883
Pasteurella multocida = tested on: Pasteurella multocida
Bibersteinia trehalosi = tested on: Bibersteinia trehalosi
[18] = tested on: Mannheimia haemolytica Serovar 6
Klebsiella pneumoniae = tested on: Klebsiella pneumoniae
[19] = tested on: Corynebacterium pseudotuberculosis ATCC 19410
[20] = tested on: Mannheimia haemolytica Serovar 1
[21] = tested on: Salmonella enterica subsp. arizonae
Staphylococcus aureus = tested on: Staphylococcus aureus
Escherichia coli BW25113 = tested on: Escherichia coli BW25113
[22] = tested on: Salmonella enterica subsp. enterica serovar Enteritidis MH91989
Escherichia coli MC1041 = tested on: Escherichia coli MC1041
[23] = tested on: Salmonella typhimurium SL1344
Escherichia coli J2210 = tested on: Escherichia coli J2210
Escherichia coli JW0013 = tested on: Escherichia coli JW0013
[24] = tested on: Escherichia coli JW2778 ΔygdD
[25] = tested on: Escherichia coli JW0368 ΔsbmA
Escherichia coli JJ2489 = tested on: Escherichia coli JJ2489

SMILES: CC[C@H](C)[C@H](NC(=O)[C@@H](NC(=O)[C@H](CO)NC(=O)[C@H](C)NC(=O)[C@@H](NC(=O)[C@H](CCCCN)NC(=O)[C@H](CCCCN)NC(=O)[C@@H](NC(=O)[C@@H](NC(=O)[C@H](CC(=O)O)NC(=O)[C@H](Cc1ccccc1)NC(=O)[C@H](CC(C)C)NC(=O)CNC(C)=O)C(C)C)[C@@H](C)CC)C(C)C)C(C)C)C(=O)NCC(=O)NCC(=O)N[C@@H](CC(C)C)C(=O)O [GLFDVIKKVASVIGGL]
- MIC [1]: ≥ 158 µM
- MIC (Escherichia coli K-12): ≥ 158 µM

SMILES: CSCC[C@H](NC(=O)[C@H](CS)NC(=O)[C@H](CC(C)C)NC(=O)[C@@H](NC(=O)[C@@H](N)Cc1cnc[nH]1)[C@@H](C)O)C(=O)N[C@@H](CC(=O)O)C(=O)NCC(=O)NCC(=O)N[C@@H](C)C(=O)N[C@H](C(=O)N[C@@H](Cc1ccc(O)cc1)C(=O)O)[C@@H](C)O [HTLCMDGGATY]
- MIC [2]: ≥ 50 µM

SMILES: CSCC[C@H](NC(=O)[C@H](CS)NC(=O)[C@H](CC(C)C)NC(=O)[C@@H](NC(=O)[C@@H](N)Cc1cnc[nH]1)[C@@H](C)O)C(=O)NCC(=O)N[C@@H](CCCCN)C(=O)N[C@@H](C)C(=O)N[C@H](C(=O)N[C@@H](Cc1ccc(O)cc1)C(=O)O)[C@@H](C)O [HTLCMGKATY]
- MIC [3]: 250 µM (≈ 281 µg/mL)
- MIC [2]: ≥ 250 µM

SMILES: CC[C@H](C)[C@H](N)C(=O)N[C@@H](Cc1cnc[nH]1)C(=O)N[C@@H](Cc1cnc[nH]1)C(=O)N[C@H](C(=O)N[C@@H](Cc1cnc[nH]1)C(=O)N[C@@H](Cc1cnc[nH]1)C(=O)N[C@@H](Cc1cnc[nH]1)C(=O)N[C@H](C(=O)N[C@@H](Cc1cnc[nH]1)C(=O)N[C@@H](Cc1cnc[nH]1)C(=O)N[C@H](C(=O)N[C@@H](Cc1cnc[nH]1)C(=O)N[C@@H](Cc1cnc[nH]1)C(=O)N[C@@H](Cc1cnc[nH]1)C(=O)N[C@H](C(=O)N[C@@H](Cc1cnc[nH]1)C(=O)N[C@@H](Cc1cnc[nH]1)C(=O)N[C@H](C(=O)N[C@@H](Cc1cnc[nH]1)C(=O)N[C@@H](Cc1cnc[nH]1)C(=O)N[C@@H](Cc1cnc[nH]1)C(N)=O)[C@@H](C)CC)[C@@H](C)CC)[C@@H](C)CC)[C@@H](C)CC)[C@@H](C)CC [IHHIHHHIHHIHHHIHHIHHH]
- MIC [4]: 0.5 µM (≈ 1.38 µg/mL)
- MIC [5]: > 64 µM
- MIC [3]: > 64 µM
- MIC [6]: 1 µM (≈ 2.75 µg/mL)
- MIC [7]: > 64 µM
- MIC [8]: ≥ 64 µM
- MIC [9]: 1 µM (≈ 2.75 µg/mL)
- MIC [10]: ≥ 64 µM

SMILES: CC[C@H](C)[C@H](NC(=O)[C@H](CCCCN)NC(=O)[C@H](CCCCN)NC(=O)[C@@H](NC(=O)[C@H](CCCCN)NC(=O)[C@H](C)NC(=O)[C@H](C)NC(=O)[C@H](CC(C)C)NC(=O)[C@H](CCCN=C(N)N)NC(=O)[C@H](CCCCN)NC(=O)[C@H](CC(C)C)NC(=O)[C@@H](NC(=O)[C@@H](N)CCCCN)[C@@H](C)CC)[C@@H](C)CC)C(=O)N[C@@H](CC(C)C)C(N)=O [KILKRLAAKIKKIL]
- MIC (Enterobacter cloacae): ≥ 32 µM
- MIC (Staphylococcus aureus MR): ≥ 32 µM
- MIC [11]: 8 µM (≈ 13.1 µg/mL)
- MIC (Acinetobacter baumannii): ≥ 32 µM
- MIC [5]: > 32 µM
- MIC [12]: 4 µM (≈ 6.54 µg/mL)
- MIC [13]: 4 µM (≈ 6.54 µg/mL)
- MIC [14]: 4 µM (≈ 6.54 µg/mL)
- MIC [15]: 4 µM (≈ 6.54 µg/mL)
- MIC [16]: ≥ 32 µM
- MIC (Escherichia coli BL21): 2 µM (≈ 3.27 µg/mL)
- MIC [17]: 8 µM (≈ 13.1 µg/mL)

SMILES: CC[C@H](C)[C@H](NC(=O)[C@H](CCCN=C(N)N)NC(=O)[C@@H](NC(=O)[C@@H](NC(=O)[C@H](CCCN=C(N)N)NC(=O)[C@H](CC(C)C)NC(=O)[C@@H](NC(=O)[C@@H](NC(=O)[C@@H]1CCCN1C(=O)CNC(=O)[C@H](Cc1ccc(O)cc1)NC(=O)[C@H](CCCCN)NC(=O)[C@H](CCCCN)NC(=O)[C@@H](NC(=O)[C@@H](NC(=O)[C@H](Cc1cnc[nH]1)NC(=O)[C@@H](NC(=O)[C@@H](NC(=O)[C@H](CCCCN)NC(=O)[C@H](CCCN=C(N)N)NC(=O)[C@@H](NC(=O)[C@@H](NC(=O)[C@H](CCCN=C(N)N)NC(=O)[C@H](CCCN=C(N)N)NC(=O)[C@H](CC(C)C)NC(=O)[C@H](CC(N)=O)NC(=O)[C@@H](N)CCCCN)[C@@H](C)CC)[C@@H](C)CC)[C@@H](C)CC)[C@@H](C)CC)[C@@H](C)CC)[C@@H](C)CC)[C@@H](C)O)[C@@H](C)CC)[C@@H](C)CC)[C@@H](C)CC)C(=O)N[C@H](C(=O)NCC(N)=O)[C@@H](C)CC [KNLRRIIRKIIHIIKKYGPTILRIIRIIG]
- MIC (Pasteurella multocida): 2.37 µM (≈ 8.3 µg/mL)
- MIC (Bibersteinia trehalosi): 2.85 µM (≈ 10 µg/mL)
- MIC [18]: 0.598 µM (≈ 2.1 µg/mL)
- MIC (Klebsiella pneumoniae): 0.37 µM (≈ 1.3 µg/mL)
- MIC [19]: 5.7 µM (≈ 20 µg/mL)
- MIC [14]: 1.2 µM (≈ 4.2 µg/mL)
- MIC [20]: 1.08 µM (≈ 3.8 µg/mL)
- MIC [21]: 1.91 µM (≈ 6.7 µg/mL)
- MIC (Staphylococcus aureus): 1.42 µM (≈ 5 µg/mL)

SMILES: CC[C@H](C)[C@H](NC(=O)[C@H](CCCN=C(N)N)NC(=O)[C@@H](N)CCCN=C(N)N)C(=O)N[C@@H](CCCN=C(N)N)C(=O)N[C@@H](CCCCN)C(=O)N[C@@H](CCCN=C(N)N)C(=O)N1CCC[C@H]1C(=O)N1CCC[C@H]1C(=O)N[C@@H](CCCN=C(N)N)C(=O)N[C@@H](CC(C)C)C(=O)N1CCC[C@H]1C(=O)N[C@@H](CCCN=C(N)N)C(=O)N1CCC[C@H]1C(=O)N[C@@H](CCCN=C(N)N)C(=O)N1CCC[C@H]1C(=O)N[C@@H](CCCCN)C(=O)O [RRIRKRPPRLPRPRPK]
- MIC (Escherichia coli BW25113): 0.078 µM (≈ 0.162 µg/mL)
- MIC [22]: 0.12 µM (≈ 0.25 µg/mL)
- MIC (Escherichia coli MC1041): 0.06 µM (≈ 0.125 µg/mL)
- MIC [23]: 0.12 µM (≈ 0.25 µg/mL)
- MIC (Escherichia coli J2210): 0.157 µM (≈ 0.326 µg/mL)
- MIC (Escherichia coli JW0013): 0.06 µM (≈ 0.125 µg/mL)
- MIC [24]: 0.12 µM (≈ 0.25 µg/mL)
- MIC [25]: 0.06 µM (≈ 0.125 µg/mL)
- MIC (Escherichia coli JJ2489): 0.12 µM (≈ 0.25 µg/mL)

Source: DBAASP
